For data set [1], the system named is murine leukemia (L1210 or P388), murine solid tumor, human solid tumor and low malignancy fibroblast (LML) cells.
The subject of data set [2] is SKOV3 (human ovarian carcinoma). Description: Cytotoxicity against SKOV3 cell line (Table 2). In kind it is cell-based.
Data set [3] concerns LoVo (human colon carcinoma). Description: Cytotoxicity against LoVo cell line. In kind it is cell-based.
Data set [4] has as its system pancreatic ductal adenocarcinoma #03 (Panc 03, P03). The conditions noted are these: SC P03.
Data set [5] relates to KB (human nasopharyngeal carcinoma). Description: Cytotoxicity against KB cell line. In kind it is cell-based.
For data set [6], the system named is murine and human tumors implanted in mice.
Procedure: Gross log kill is defmed as T-C/3.2 Td where T is the median time in days for the tumors of the treated group to reach 750 mg, C is the median time in days for the tumors of the control group to reach 750 mg, and Td is the tumor volume doubling time. […] An activity rating of +++ to ++++, which is indicative of clinical activity, is needed to effect partial or complete regression of 100-300 mg size masses of most transplanted solid tumors of mice.
[7] abbreviates: Exp 1843, 4 IV inj., 28/5 mg/kg TD.
Where [8] appears, read: Exp 1878, 9 IV inj., 82 mg/kg TD.
[9] abbreviates: Exp 1813, 9 IV inj., 27 mg/kg TD.
Where [10] appears, read: Exp 1843, 7 IV inj., 23 mg/kg TD.

Experimental findings from patent publication US5952298A, “Cryptophycins” (priority 1995, dated 1999) are described below.

Each structure is given as a SMILES string. Like-named read-outs stand apart in the source and are kept apart here. Bounds are passed on as bounds.

Take `COc1ccc(C[C@H]2NC(=O)/C=C/C[C@@H]([C@H](C)[C@H]3O[C@@H]3c3ccccc3)OC(=O)[C@H](CC(C)C)OC(=O)[C@H](C)CNC2=O)cc1` [Cryptophycin 2]: in data set [1] (25 μg/disk), the “Differential in Zone Units, Corbett Assay” value (shortened to “Differential in Zone Units”) is listed as greater than 400 zone units. In data set [1] (25 μg/disk), the “Type of Cytotoxicity, Corbett Assay” value is “E/T”. Also, the “SKOV3 IC50” value in data set [2] is 0.18 ng/mL. Also, the “LoVo IC50” value in data set [3] (Table 1) came to 0.0002 ng/mL; in data set [3] (Table 2) it was 0.021 ng/mL.

In the case of `COc1ccc(C[C@H]2NC(=O)/C=C/C[C@@H]([C@H](C)/C=C/c3ccccc3)OC(=O)[C@H](CC(C)C)OC(=O)[C@H](C)CNC2=O)cc1Cl` [Cryptophycin 3], in data set [4] (setting [7]), the “% Body Wt. Loss at Nadir” value is -9%, the Cures is recorded as 0/5, the “Log Kill” value is reported as less than 1 and the T/C is reported as 54%. Besides, in data set [1] (25 μg/disk), the “Differential in Zone Units” value is greater than 400 zone units and the “Type of Cytotoxicity, Corbett Assay” value is “E/T”. Also, in data set [5] (Table 1), the “KB IC50” value came to 0.3 ng/mL. For the same compound, the “SKOV3 IC50” value in data set [2] is on record as 2.8 ng/mL. Besides, the “LoVo IC50” value in data set [3] (Table 1) was 0.5 ng/mL. The “LoVo IC50” value in data set [3] (Table 2) worked out at 0.6 ng/mL.

Regarding `COc1ccc(C[C@H]2NC(=O)/C=C/C[C@@H]([C@H](C)/C=C/c3ccccc3)OC(=O)[C@H](CC(C)C)OC(=O)[C@H](C)CNC2=O)cc1` [Cryptophycin 4], in data set [1] (20 μg/disk), the “Differential in Zone Units” value was greater than 400 zone units and the “Type of Cytotoxicity, Corbett Assay” value is given as “E/T”. For the same compound, the “KB IC50” value in data set [5] (Table 1) was determined as 1.3 ng/mL. In data set [2], the “SKOV3 IC50” value is 21 ng/mL. Further, in data set [3] (Table 2), the “LoVo IC50” value stood at 2.5 ng/mL.

On to `COC(=O)[C@H](C)CNC(=O)[C@@H](Cc1ccc(OC)c(Cl)c1)NC(=O)/C=C/C[C@H](OC(=O)[C@@H](O)CC(C)C)[C@H](C)[C@H]1O[C@@H]1c1ccccc1` [Cryptophycin 5], for which the “KB IC50” value in data set [5] (Table 1) is reported as 0.02 ng/mL; in data set [5] (Table 2), 12 ng/mL. The “SKOV3 IC50” value in data set [2] is 7.4 ng/mL.

In the case of `COc1ccc(C[C@@H](NC(=O)/C=C/C[C@@H]2O[C@@H](c3ccccc3)[C@H](O)[C@H]2C)C(=O)O)cc1Cl` [Cryptophycin 7], the “KB IC50” value in data set [5] (Table 1) is recorded as no less than 750 ng/mL. In addition, the “LoVo IC50” value in data set [3] (Table 1) is listed as no less than 480 ng/mL.

Consider `COc1ccc(C[C@H]2NC(=O)/C=C/C[C@@H]([C@H](C)[C@@H](O)[C@@H](OC)c3ccccc3)OC(=O)[C@H](CC(C)C)OC(=O)[C@H](C)CNC2=O)cc1Cl` [Cryptophycin 9], for which, in data set [5] (Table 1), the “KB IC50” value is listed as 15 ng/mL.

As to `COc1ccc(C[C@@H](NC(=O)/C=C/C[C@@H]2O[C@@H](c3ccccc3)[C@H](O)[C@H]2C)C(=O)NC[C@@H](C)C(=O)O)cc1Cl` [Cryptophycin 12], the “KB IC50” value in data set [5] (Table 1) was no less than 100 ng/mL; in data set [5] (Table 2), 18 ng/mL. The “LoVo IC50” value in data set [3] (Table 1) is listed as no less than 100 ng/mL.

For the compound `COc1ccc(C[C@@H](NC(=O)/C=C/C[C@H](O)[C@H](C)/C=C/c2ccccc2)C(=O)NC[C@@H](C)C(=O)O)cc1Cl` [Cryptophycin 14], the “KB IC50” value in data set [5] (Table 1) is 1.8 ng/mL.

For `CC(C)C[C@@H]1OC(=O)[C@H](C)CNC(=O)[C@@H](Cc2ccc(O)c(Cl)c2)NC(=O)/C=C/C[C@@H]([C@H](C)[C@H]2O[C@@H]2c2ccccc2)OC1=O` [Cryptophycin 16], in data set [4] (setting [8]), the “% Body Wt. Loss at Nadir” value was -1%, the Cures is 0/5, the “Log Kill” value is given as “None” and the T/C stood at 89%. Moreover, the “KB IC50” value in data set [5] (Table 2) stood at 0.08 ng/mL. In data set [2], the “SKOV3 IC50” value was 0.64 ng/mL.

With `CC(C)C[C@@H]1OC(=O)[C@H](C)CNC(=O)[C@@H](Cc2ccc(O)c(Cl)c2)NC(=O)/C=C/C[C@@H]([C@H](C)/C=C/c2ccccc2)OC1=O` [Cryptophycin 17], the “KB IC50” value in data set [5] (Table 2) is reported as 4.7 ng/mL. For the same compound, in data set [2], the “SKOV3 IC50” value was determined as 11 ng/mL. Moreover, the “LoVo IC50” value in data set [3] (Table 2) is listed as 5.9 ng/mL.

In the case of `CC[C@H](C)[C@@H]1OC(=O)[C@H](C)CNC(=O)[C@@H](Cc2ccc(OC)c(Cl)c2)NC(=O)/C=C/C[C@@H]([C@H](C)/C=C/c2ccccc2)OC1=O` [Cryptophycin 18], the “SKOV3 IC50” value in data set [2] is 23 ng/mL. Moreover, in data set [3] (Table 2), the “LoVo IC50” value came to 4.5 ng/mL.

In the case of `COc1ccc(C[C@H]2NC(=O)/C=C/C[C@@H]([C@H](C)/C=C/c3ccccc3)OC(=O)[C@H](C(C)C)OC(=O)[C@H](C)CNC2=O)cc1Cl` [Cryptophycin 19], the “KB IC50” value in data set [5] (Table 2) turned out to be 9.8 ng/mL. For the same compound, in data set [2], the “SKOV3 IC50” value turned out to be 41 ng/mL.

For `COc1ccc(C[C@H]2NC(=O)/C=C/C[C@@H]([C@H](C)[C@H]3O[C@@H]3c3ccccc3)OC(=O)[C@H](CC(C)C)OC(=O)CCNC2=O)cc1Cl` [Cryptophycin 21], in data set [4] (setting [9]), the “% Body Wt. Loss at Nadir” value is on record as -11%, the Cures is listed as 0/5, the “Log Kill” value is on record as “None” and the T/C is recorded as 61%. In data set [4] (setting [9]), the “dead (animals)” value is 1/5. Moreover, the “SKOV3 IC50” value in data set [2] is given as 0.029 ng/mL. The “LoVo IC50” value in data set [3] (Table 2) is 0.0003 ng/mL.

On to `COc1ccc(C[C@H]2NC(=O)/C=C/C[C@@H]([C@H](C)[C@H]3O[C@@H]3c3ccccc3)OC(=O)[C@H](CC(C)C)OC(=O)CCNC2=O)cc1` [Cryptophycin 24], for which the “KB IC50” value in data set [5] (Table 2) was found to be 0.12 ng/mL. Also, the “SKOV3 IC50” value in data set [2] was found to be 0.3 ng/mL. In addition, the “LoVo IC50” value in data set [3] (Table 2) is on record as 0.095 ng/mL.

`COc1ccc(C[C@H]2NC(=O)C[C@@H](C[C@H](O)[C@H](C)/C=C/c3ccccc3)OC(=O)[C@H](CC(C)C)OC(=O)[C@H](C)CNC2=O)cc1Cl` [Cryptophycin 26]: the “KB IC50” value in data set [5] (Table 2) is on record as 19 ng/mL. Further, in data set [2], the “SKOV3 IC50” value stood at 95 ng/mL. Also, the “LoVo IC50” value in data set [3] (Table 2) came out at 9.8 ng/mL.

`COc1ccc(C[C@H]2NC(=O)/C=C/C[C@@H](C/C=C/c3ccccc3)OC(=O)[C@H](CC(C)C)OC(=O)[C@H](C)CNC2=O)cc1Cl` [Cryptophycin 28]: in data set [5] (Table 2), the “KB IC50” value turned out to be 1.5 ng/mL. Moreover, the “SKOV3 IC50” value in data set [2] is given as 6.1 ng/mL. The “LoVo IC50” value in data set [3] (Table 2) stood at 0.75 ng/mL.

Regarding `COc1ccc(C[C@H]2NC(=O)/C=C/C[C@@H]([C@H](C)/C=C/c3ccccc3)OC(=O)[C@H](CC(C)C)OC(=O)CCNC2=O)cc1Cl` [Cryptophycin 29], in data set [2], the “SKOV3 IC50” value worked out at 3.4 ng/mL. Besides, the “LoVo IC50” value in data set [3] (Table 2) came to 0.49 ng/mL.

Regarding `COc1ccc(C[C@H]2NC(=O)C[C@H](O)C[C@@H]([C@H](C)/C=C/c3ccccc3)OC(=O)[C@H](CC(C)C)OC(=O)[C@H](C)CNC2=O)cc1Cl` [Cryptophycin 30], the “KB IC50” value in data set [5] (Table 2) is 11 ng/mL.

For `COc1c(Cl)cc(C[C@H]2NC(=O)/C=C/C[C@@H]([C@H](C)[C@H]3O[C@@H]3c3ccccc3)OC(=O)[C@H](CC(C)C)OC(=O)[C@H](C)CNC2=O)cc1Cl` [Cryptophycin 31], the “KB IC50” value in data set [5] (Table 2) was 0.53 ng/mL. The “SKOV3 IC50” value in data set [2] came out at 1.9 ng/mL. Besides, the “LoVo IC50” value in data set [3] (Table 2) was 0.062 ng/mL.

Turning to `COc1ccc(CC2NC(=O)CCCC(C(C)C3OC3c3ccccc3)OC(=O)C(CC(C)C)OC(=O)C(C)CNC2=O)cc1Cl` (centres unmarked) [Cryptophycin 35], in data set [4] (setting [10]), the “% Body Wt. Loss at Nadir” value is -2%, the Cures is 0/5, the “Log Kill” value came to 1.3 and the T/C is on record as 11%. For the same compound, in data set [6], the “in vivo activity (in words)” value is on record as “Good in vivo activity”.

Turning to `COc1ccc(C[C@H]2NC(=O)CCC[C@@H]([C@H](C)[C@H]3O[C@@H]3c3ccccc3)OC(=O)[C@H](CC(C)C)OC(=O)[C@H](C)CNC2=O)cc1Cl` [Cryptophycin 35], the “KB IC50” value in data set [5] (Table 2) worked out at 0.055 ng/mL. In addition, the “SKOV3 IC50” value in data set [2] came to 0.092 ng/mL.

Turning to `COc1ccc(C[C@H]2NC(=O)/C=C/C[C@@H](C[C@H]3O[C@@H]3c3ccccc3)OC(=O)[C@H](CC(C)C)OC(=O)[C@H](C)CNC2=O)cc1Cl` [Cryptophycin 40], the “KB IC50” value in data set [5] (Table 2) is 9.0 ng/mL. In data set [3] (Table 2), the “LoVo IC50” value is 1.0 ng/mL.

On to `CC[C@H](C)[C@@H]1OC(=O)[C@H](C)CNC(=O)[C@@H](Cc2ccc(OC)c(Cl)c2)NC(=O)/C=C/C[C@@H]([C@H](C)[C@H]2O[C@@H]2c2ccccc2)OC1=O` [Cryptophycin 54], for which the “KB IC50” value in data set [5] (Table 2) worked out at 0.80 ng/mL. Moreover, the “SKOV3 IC50” value in data set [2] turned out to be 2.2 ng/mL. Further, the “LoVo IC50” value in data set [3] (Table 2) was determined as 2.2 ng/mL.
